Patent US20250213649A1, “PEPTIDE HAVING ANTI-INFLAMMATORY AND ANTI-FIBROTIC ACTIVITIES AND USE THEREOF” (CAREGEN CO., LTD., priority 2022, published 2025)

Columns and labels:
[1] = system: A549 cells; experiment: Inhibition of LPS-induced inflammatory cytokine gene expression, RT-PCR, A549 cells; format: cell-based, human; settings: 5 μg/ml LPS, peptide 10, 50, 100, 500 μM, 3 hours, RT-PCR (FIG. 2)
Experimental: A549 cells (human alveolar basal epithelial cells) were seeded at 3×10^5 cells/well in a 6-well plate and used in the experiment. After culturing for 1 day with a culture medium containing 10% FBS, the culture medium was replaced with a culture medium without containing FBS to induce starvation for 4 hours. A normal group without being treated with any substances, a group treated with 5 μg/ml of LPS (Sigma Aldrich) (negative control group), groups treated with 5 μg/ml of LPS and the peptide of Production Example 1 (10, 50, 100, 500 μM), and a group treated with 5 μg/ml of LPS and 10 μM of Dexamethasone (DEX) (positive control group) were treated with active substances and drugs respectively, and then RNA was extracted after 3 hours to carry out RT-PCR. RNA was extracted from the A549 cells in the above-described treatment group using an easy-BLUE™ Total RNA extraction kit (Qiagen, Germany). The extracted RNA was converted into cDNA with RT-PCR premix (iNtRON Biotechnology, Seongnam, Korea). After preparing a reaction mixture with PCR premix (iNtRON Biotechnology, Seongnam, Korea) and primers for each gene, PCR was carried out using a PCR machine (Eppendorf, Germany). Next, the mRNA expression pattern was determined by agarose gel electrophoresis. The base sequences of the primers used in the experiment are listed in [Table 2] below.

[2] = system: A549 cells; experiment: Western blotting of LPS-induced inflammatory cytokine/signaling proteins, A549 cells; format: cell-based, human; settings: LPS 5 μg/ml, peptide 10, 50, 100, 500 μM, 24 hours, Western blot (FIG. 4a, 4b)
Experimental: A549 cells (human alveolar basal epithelial cells) were seeded at 3×10^5 cells/well in a 6-well plate and used in the experiment. After culturing for 1 day with a culture medium containing 10% FBS, the culture medium was replaced with a culture medium without containing FBS to induce starvation for 4 hours. Cells of a normal group without being treated with any substances, a group treated with LPS (5 μg/ml) (Sigma Aldrich) (negative control group), groups treated with LPS (5 μg/ml) and the peptide of Production Example 1 (10, 50, 100, 500 μM), and a group treated with LPS (5 μg/ml) and 10 μM of Dexamethasone (DEX) (positive control group) were treated with active substances and drugs respectively and then cultured for 24 hours. The cultured cells of each treatment group and control group were lysed by adding a lysis buffer, and then centrifugation was carried out at 4° C. at 12,000 rpm for 30 minutes to obtain proteins, which were subsequently quantified using a BCA Protein Assay kit (Sigma). The proteins were subjected to SDS-PAGE (sodium dodecyl sulfate-polyacrylamide gel electrophoresis) and then subjected to electrotransfer to a membrane. The membrane to which the proteins were attached was treated with 5% skim milk for blocking and then subjected to a reaction with a primary antibody overnight at 4° C. After washing with PBS-T, the membrane was subjected to a reaction with a secondary antibody at room temperature for 1 hour, washed again with PBS-T, and then visualized by a Western detection reagent (Elpis Biotech, Daejeon, Korea) using Gel Doc (Bio-Rad, Hercules, CA, USA). The antibodies used in the experiment are as follows. An Anti-IL-1β antibody: (Cell signaling technology (CST), USA), an anti-IL-6 antibody: (Santa Cruz Biotechnology, USA), an anti-COX2 antibody: (Santa Cruz Biotechnology, USA), an anti-Phospho-PI3K antibody: (Cell signaling technology (CST), USA), an anti-Phospho-AKT antibody: (Cell signaling technology (CST), USA), an anti-Phospho-ERK antibody: (Cell signaling technology (CST), USA), and an anti-β-Actin antibody: (Santa Cruz Biotechnology, USA).

[3] = system: BALB/c mice; experiment: BLM-induced pulmonary fibrosis model, cell counts in bronchoalveolar lavage fluid; format: in vivo; settings: BALB/c male mice, peptide 1 mg/mouse intranasal three times a week for 14 days, 21st day (FIG. 13b)
Experimental: As shown in [Table 6] below, 8-week-old BALB/c male mice were divided into 4 groups of 5 mice each. On the 1st day, a Bleomycin solution ([…]/50 μl/mouse) was administered through the oropharynx to carry out one time of induction with BLM. Then, from the 7th day, the peptide of Production Example 1 (1 mg/mouse) was administered intranasally three times a week for 14 days, and Pirfeninone (2 mg/mouse) for a positive control group was administered orally three times a week for 14 days. On the 21st day of the induction with BLM, mice were sacrificed to obtain the bronchoalveolar lavage fluid and the lung tissue, which were used in the next analysis.
The mouse subjected to the animal experiment was anesthetized, and then the treatment area was disinfected with 70% ethanol. […] The separated cells were resuspended in 0.5 ml of PBS, subsequently diluted with trypan blue solution at a 1:1 ratio, and then the total number of cells was counted using a hematocytometer. […] After staining, cells were observed and counted through a microscope, and then the number of immune cells with respect to the total number of cells was calculated to show the results as a graph. […]

Sequence: KYLLVHRPYYRR [peptide of Production Example 1]
- gene expression of COX-2 [1]: decreases in a concentration-dependent manner
- gene expression of IL-1β [1]: decreases in a concentration-dependent manner
- gene expression of IL-6 [1]: decreases in a concentration-dependent manner
- gene expression of IL-8 [1]: decreases in a concentration-dependent manner
- gene expression of TNF-α [1]: decreases in a concentration-dependent manner
- expression of COX2 (protein) [2]: decreased the expression levels of proteins in a concentration-dependent manner
- expression of IL-1β (protein) [2]: decreased the expression levels of proteins in a concentration-dependent manner
- expression of IL-6 (protein) [2]: decreased the expression levels of proteins in a concentration-dependent manner
- expression of Phospho-AKT [2]: decreased the expression levels of proteins in a concentration-dependent manner
- expression of Phospho-ERK [2]: decreased the expression levels of proteins in a concentration-dependent manner
- expression of Phospho-PI3K [2]: decreased the expression levels of proteins in a concentration-dependent manner
- number of lymphocytes in bronchoalveolar lavage fluid [3]: decreased the increased number of macrophages and the increased number of lymphocytes
- number of macrophages in bronchoalveolar lavage fluid [3]: decreased the increased number of macrophages
